Values joined by “and” are separate entries in the source; they are usually repeats but may differ in a detail not shown here. Equal values may be shown once.
Key:
[1] = for vapor or sublimation pressure: Calculated from knudsen effusion weight loss; for Triple point temperature: DTA
[2] = Molar enthalpy of transition or fusion; conditions: DSC
[3] = molar heat capacity at constant pressure; conditions: 101.33 kPa, Crystal 2, Small sample (50 mg) DSC

O=C1NCCN1 [2-imidazolidinone]
[1]
Conditions | vapor or sublimation pressure
327.2 K, Crystal 2 | 0.0001064 kPa and 0.0001074 kPa and 0.0001035 kPa
329.21 K, Crystal 2 | 0.0001364 kPa and 0.0001328 kPa and 0.0001305 kPa
331.14 K, Crystal 2 | 0.0001664 kPa and 0.0001631 kPa and 0.0001658 kPa
333.19 K, Crystal 2 | 0.0002142 kPa and 0.0002049 kPa and 0.0002095 kPa
335.21 K, Crystal 2 | 0.0002681 kPa and 0.0002592 kPa and 0.0002535 kPa
337.15 K, Crystal 2 | 0.0003214 kPa and 0.000301 kPa and 0.00032 kPa
339.2 K, Crystal 2 | 0.0003984 kPa and 0.0003883 kPa
341.21 K, Crystal 2 | 0.000457 kPa and 0.0004831 kPa and 0.0004721 kPa
343.14 K, Crystal 2 | 0.0005644 kPa and 0.0005525 kPa and 0.0005387 kPa
345.19 K, Crystal 2 | 0.0006621 kPa and 0.0006672 kPa and 0.0006399 kPa
347.2 K, Crystal 1 | 0.0007833 kPa and 0.0008114 kPa and 0.0007693 kPa
349.16 K, Crystal 1 | 0.0009806 kPa and 0.0009769 kPa and 0.0009472 kPa

Conditions | Molar enthalpy of transition or fusion [kJ/mol] | Triple point temperature [K] | molar heat capacity at constant pressure [J/K/mol]
[1], Crystal 1 | – | 404.8 | –
[1], Crystal 2 | – | 346.6 | –
[2], Crystal 1 | 13.2 | – | –
[2], Crystal 2 | 3.8 | – | –
[3], 268.15 K | – | – | 99.4
[3], 270.15 K | – | – | 100
[3], 275.15 K | – | – | 101.5
[3], 280.15 K | – | – | 102.7
[3], 285.15 K | – | – | 103.9
[3], 290.15 K | – | – | 105.1
[3], 295.15 K | – | – | 106.3
[3], 298.15 K | – | – | 107.7
[3], 300.15 K | – | – | 108.5
[3], 305.15 K | – | – | 110.2
[3], 310.15 K | – | – | 111.9
[3], 315.15 K | – | – | 113.2
[3], 320.15 K | – | – | 115.4
[3], 325.15 K | – | – | 117.3
[3], 330.15 K | – | – | 119
[3], 335.15 K | – | – | 120.9
[3], 338.15 K | – | – | 122.1

From the NIST ThermoML archive (doi:10.1016/j.jct.2007.08.004)
